Values of other authors as cited in patent US7393522B2, “Physiologically balanced, ionized, acidic solution and methodology for use in wound healing” (NovaBay Pharmaceuticals, Inc., priority 2000, dated 2008).

Details: pH 5.0 to pH 8.0

pH of maximum decomposition rate: 6.89
Structure (SMILES): OCl [HOCl, hypochlorous acid]
